Measurements taken from patent US5395932A, “2,3-,4-,5-,6-,7-,8-,9- and/or 10-substituted dibenzoxazepine compounds, pharmaceutical compositions and methods of use” (G. D. Searle & Co., priority 1993, dated 1995).
Counter-ions that a name gives are not always drawn.

How the values were obtained:
[1] = biological target: T1, prostaglandin E2-induced contractions of segments of guinea pig ileum (Cavia porcellus, UniProt A0A286XHJ6); assay: Prostaglandin (PGE) Antagonism Assay (guinea pig ileum); format: cell-based, male albino guinea pigs; conditions: estimated from 3 micromolar (dose ratio ≥2) or Schild plot (dose ratio ≥5); 37° C.; read-out: PGE ANTAGONISM IN GUINEA PIG ILEUM (pA2) (converted)
T1 construct: Segments of ileum about 2 cm long were then cut and mounted in a 10-mL tissue bath; from tissue; host or cells: guinea pig ileum segments
T1 sequence (A0A286XHJ6 1-405): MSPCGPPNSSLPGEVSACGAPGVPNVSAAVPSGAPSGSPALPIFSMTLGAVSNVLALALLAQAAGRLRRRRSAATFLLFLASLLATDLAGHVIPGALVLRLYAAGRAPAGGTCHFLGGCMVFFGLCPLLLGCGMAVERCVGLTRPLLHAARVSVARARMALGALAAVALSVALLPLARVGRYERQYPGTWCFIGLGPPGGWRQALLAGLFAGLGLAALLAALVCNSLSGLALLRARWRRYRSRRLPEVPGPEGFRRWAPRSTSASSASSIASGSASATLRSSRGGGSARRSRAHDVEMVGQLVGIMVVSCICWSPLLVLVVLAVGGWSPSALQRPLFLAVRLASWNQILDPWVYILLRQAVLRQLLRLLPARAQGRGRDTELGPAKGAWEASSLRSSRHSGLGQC
Text: The phrase "EC50 concentration" as used herein means that concentration of a compound or drug which is necessary to elicit a 50% maximal biological response and, thus, which is necessary to elicit a 50% reduction in the contractions of guinea pig ileum segments in a prostaglandin antagonism assay. (b) Prostaglandin (PGE) Antagonism Assay In order to determine the effectiveness of several of the compounds of the present invention ("test compounds") as prostaglandin E2 antagonists,a prostaglandin antagonism assay was conducted, as described below, to determine the ability of these compounds to inhibit prostaglandin E2 -induced contractions of segments of guinea pig ileum. […] Male albino guinea pigs weighing 200 to 500 grams were sacrificed by cervical dislocation. The ilea were then quickly removed from the guinea pigs and placed in a modified Tyrode solution, a solution which is known to those skilled in the art, containing one-half of the usual amount of magnesium ions. Segments of ileum about 2 cm long were then cut and mounted in a 10-mL tissue bath containing the modified Tyrode solution. The solution was maintained at 37° C. and aerated with a gaseous mixture of 95% oxygen and 5% carbon dioxide. Data for a control prostaglandin E2 dose response curve plotting concentration of prostaglandin E2 versus the intensity of contractions, detected isotonically, was then obtained by experimentally adjusting the dose of the prostaglandin E2 being injected into the tissue bath, in a manner known by those of skill in the art. Solutions or suspensions containing an initial concentration (3 micromolar) of a test compound in modified Tyrode solution ("test solutions/suspensions") were then separately substituted for the control bath solution. Each test solution/suspension was then kept in constant contact with the ileum tissue, except for brief periods to drain the bath in preparation for rinsing with fresh test solution/suspension. A second prostaglandin E2 dose response curve was then generated for prostaglandin E2 in the presence of a test compound. A dose ratio of EC50 doses was then calculated from the results of each test in a manner known by those of skill in the art. A test compound was determined to be "active" if the initial concentration used yielded at least a two-fold shift (dose ratio greater than or equal to 2) in the dose response curve for prostaglandin E2. […] The compounds of the present invention which were tested in this assay, and for which results are presented in Table 1, correspond to the particular examples specified in Table 1.

[2] = Writhing Assay (PBQ-induced writhing, analgesia); format: in vivo, Charles River male albino mice; conditions: Mus musculus, po, intragastric; for responders at 30 mg/kg: 30 mg per kilogram, 25 minutes before PBQ i.p., writhes ≤ one-half median of saline control, read-out: WRITHING ASSAY, number of mice out of 9 or 10 in which test compound produced analgesia (converted); for ED50: mice, PBQ
Protocol: The phrase "ED50 dose" as used herein means that dose of a compound or drug which produced a biological effect, such as producing analgesia, in 50% of the animals to which the compound or drug was administered. The Writhing Assay is one of the most widely-used experimental procedures for measuring the analgesic activity of different narcotic and nonnarcotic analgesic agents, and involves the continuous, chemically-induced pain of visceral origin to an animal, such as a mouse or rat. [Gyires et al., Arch. int. Pharmacodyn, 267, 131-140 (1984); […] al., Fed. Proc., 15, 494 (1956); Koster et al., Fed. Proc., 18, 412 (1959); and Witken et al., J. Pharmacol. exp. Ther., 133, 400-408 (1961).] Chemicals which may be used to induce this pain include phenylbenzoquinone (PBQ) and acetic acid. As a result of the chemical irritation to the animal, a characteristic stretching and writhing of the animal (dorsiflexion of the animal's back, extension of its hindlimbs and the strong contraction of its abdominal musculature) will generally occur. […] Drugs which reduce the number of writhes of the animal appear to restore the normal nociceptive threshold of the animal. […] Charles River male albino mice, weighing 20 to 30 grams were used in this assay. Twenty-five minutes after intragastric administration to nine or ten mice of 30 mg per kilogram of body weight of a compound of the present invention ("test compound"), […] per 10 g of body weight of a 0.025% w/v solution of PBQ was injected intraperitoneally into each mouse. Ten mice which were given saline in place of a test compound of the invention were used as a control group. Five minutes later, each mouse was individually placed into a glass beaker for observation, and the number of writhes occurring during the following ten-minute period was counted. A test compound was considered to have produced analgesia in a mouse if, in accordance with the conditions set forth above, and under the test criteria employed for this assay, after the administration of 30 mg per kilogram of body weight of a compound of the present invention to the mouse, the number of writhes elicited by a mouse injected with PBQ was equal to, or less than, one-half the median number of writhes recorded for the saline-treated control group of mice that day, as described by Taber in "Predictive Value of Analgesic Assays in Mice and Rats," Advances in Biochemical Psychopharmacology, 8, 191 (1974). The results for the particular compounds of the present invention analyzed in this assay, and discussed in the examples identified below which correspond thereto, are presented in Table 1 hereinbelow as fractions under the heading "WRITHING ASSAY." The fractions indicate the number of mice out of nine or ten in which a test compound produced analgesia. The standard initial screening dose of a test compound employed in this assay was 30 milligrams per […] of body weight. If this initial screening dose of the test compound produced analgesia in seven of nine or ten mice, then the effect of additional doses of the test compound on the writhing response was evaluated, and then the ED50 dose was generally calculated. (The slopes of the dose-response curves for all test compounds analyzed were compared as described by Tallarida and Murray, Manual of Pharmacologic Calculations, Page 11 (Springer Verlag, New York, 1981)). All ED50 doses calculated are also presented below as whole numbers in Table 1, under the heading "WRITHING ASSAY."

Kb [1] | Compound | responders at 30 mg/kg [2] | ED50 [2]
794 nM | O=C(NCc1ccncc1)c1csc(CN2Cc3ccccc3Oc3ccc(Cl)cc32)n1 [Example 21, 2-[(8-chlorodibenzb,f][1,4]oxazepin-10(11H)yl)methyl]-N-(4-pyridinylmethyl)-4-thiazolecarboxamide, acetate, hydrochloride] | 70% | 
794 nM | OC(/C=C\c1ccncc1)c1csc(N2Cc3ccccc3Oc3ccc(Cl)cc32)n1 (stereo not drawn) [Example 34A, 2-(8-Chlorodibenz[b,f][1,4]oxazepin-10(11H)-yl)-a-[2Z(4-pyridinyl)ethenyl]-4-thiazolemethanol, hydrochloride] |  | 9.7 mg/kg
631 nM | O=C(NCc1csc(N2Cc3ccccc3Oc3ccc(Cl)cc32)n1)c1ccncc1 [Example 36, N-[[2-(8-Chlorodibenz[b,f][1,4]oxazepin-10(11H)-yl)-4-thiazolyl]methyl]-4-pyridinecarboxamide, hydrochloride] | 60% | 
794 nM | Cl.O=C(NCc1ccncc1)c1csc(N2Cc3ccccc3Oc3ccc(Cl)cc32)n1 [Example 26, 2-(8-Chlorodibenz[b,f][1,4]oxazepin-10(11H)-yl)-N-(4-pyridinylmethyl)-4-thiazolecarboxamide, monohydrochloride] |  | 9.77 mg/kg
631 nM | O=C(CCc1ccncc1)c1csc(N2Cc3ccccc3Oc3ccc(Cl)cc32)n1 [Example 32, 1-[2-(8-Chlorodibenz[b,f][1,4]oxazepin-10(11H)-yl)-4-thiazolyl]-3-(4-pyridinyl)-1-propanone, monohydrochloride] | 60% | 
7.94 nM | O=C(O)c1csc(CN2Cc3ccccc3Oc3ccc(Cl)cc32)n1 [Example 20, 2-[(8-chlorodibenz[b,f][1,4]oxazepin-10(11H)yl)methyl]-4-thiazolecarboxylicacid, sodium salt] | 50% | 
3160 nM | O=C(Nc1ccncc1)c1csc(N2Cc3ccccc3Oc3ccc(Cl)cc32)n1 [Example 28, 2-(8-Chlorodibenz[b,f][1,4]oxazepin-10(11H)-yl)-N-4-pyridinyl-4-thiazolecarboxamide, hydrochloride] | 100% | 
1000 nM | O=C(NCc1cccnc1)c1csc(N2Cc3ccccc3Oc3ccc(Cl)cc32)n1 [Example 37, 2-(8-Chlorodibenz[b,f][1,4]oxazepin-10(11H)-yl)-N-(3-pyridinylmethyl)-4-thiazolecarboxamide, hydrochloride] | 10% | 

Further lines, the molecule ahead of its results:

Compound | Kb [1] | responders at 30 mg/kg [2] | ED50 [2]
O=C(Nc1ccncc1)c1coc(CN2Cc3ccccc3Oc3ccc(Cl)cc32)n1 [Example 17, 2-[(8-chlorodibenz[b,f][1,4]oxazepin-10(11H)yl)methyl]-N-4-pyridinyl-4-oxazolecarboxamide, hydrochloride] | 398 nM |  | 
CN(C)CCNC(=O)c1csc(N2Cc3ccccc3Oc3ccc(Cl)cc32)n1 [Example 27, 2-(8-Chlorodibenz[b,f][1,4]Oxazepin-10(11H)-yl)-N-[2-(dimethylamino)ethyl]-4-thiazolecarboxamide, monohydrochloride] |  | 60% | 
O=C(NCCc1ccccn1)c1coc(CN2Cc3ccccc3Oc3ccc(Cl)cc32)n1 [Example 9, 2-[(8-chlorodibenz[b,f][1,4]oxazepin-10(11H)yl)methyl]-N-[2-(2-pyridinyl)ethyl]-4-oxazolecarboxamide, hydrochloride] | 200 nM | 70% | 
O=C(NCc1cccs1)c1coc(CN2Cc3ccccc3Oc3ccc(Cl)cc32)n1 [Example 15, 2-[(8-chlorodibenz[b,f][1,4]oxazepin-10(11H)yl)methyl]-N-(2-thienylmethyl)-4-oxazolecarboxamide] | 158 nM | 70% | 
O=C(Nc1cncnc1)c1coc(CN2Cc3ccccc3Oc3ccc(Cl)cc32)n1 [Example 16, 2-[(8-chlorodibenz[b,f][1,4]oxazepin-10(11H)yl)methyl]-N-5-pyrimidinyl-4-oxazolecarboxamide] | 3160 nM |  | 
O=C(O)c1coc(CN2Cc3ccccc3Oc3ccc(Cl)cc32)n1 [Example 8A, 2-[(8-chlorodibenz[b,f][1,4]oxazepin-10(11H)yl)methyl]-4-oxazole carboxylic acid, sodium salt] | 39.8 nM | 10% | 
Cc1nc(CN2Cc3ccccc3Oc3ccc(Cl)cc32)cs1 [Example 23, 8-chloro-10,11-dihydro-10-[(2-methyl-4-thiazolyl)methyl]dibenz[b,f][1,4]oxazepine hydrochloride] |  | 11.1% | 
O=C(NCc1ccccn1)c1coc(CN2Cc3ccccc3Oc3ccc(Cl)cc32)n1 [Example 10, 2-[(8-chlorodibenz[b,f][1,4]oxazepin-10(11H)yl)methyl]-N-(2-pyridinylmethyl)-4-oxazolecarboxamide, monohydrochloride] | 31.6 nM | 20% | 
O=C(Nc1ccccn1)c1csc(N2Cc3ccccc3Oc3ccc(Cl)cc32)n1 [Example 30, 2-(8-Chlorodibenz[b,f][1,4]oxazepin-10(11H)-yl)-N-2-pyridinyl-4-thiazolecarboxamide, hydrochloride] |  | 40% | 
O=C(OCc1ccncc1)c1coc(CN2Cc3ccccc3Oc3ccc(Cl)cc32)n1 [Example 12, 4-pyridinylmethyl 2-[(8-chlorodibenz[b,f][1,4]oxazepin-10(11H) -yl)methyl]-4-oxazole carboxylate, hydrochloride] |  | 40% | 
